Results taken from patent US20260069693A1, “UROLITHINS AND T-CELL MEDIATED IMMUNE RESPONSE” (priority 2022, published 2026).

Legend:
Pgam5^−/− CD8^+ T cells = assay: aCD3/aCD28 stimulation of Pgam5-/- T cells in presence of UA; format: cell-based, mice
Excerpt: Next the inventors examined whether the observed upregulation of TCF1 was a result of enhanced Wnt signalling. […] To explore whether Pgam5 may be involved in UA-induced Wnt activation, the inventors examined Pgam5 localization upon UA administration. […] More importantly, Pgam5 loss blocked the UA-dependent expansion of CD44^−CD62L^+Sca1^Hi TSCM cells (FIG. 5I).
Splenic murine T cells were isolated from mice aged 6-20 weeks by negative selection with EasySep mouse T cell isolation kit (Stem cell) according to the manufacturer's instructions. To monitor T cell proliferation, purified T cells were loaded with CellTrace Violet (C34557 ThermoFisher Scientific). T cell activation was initiated using αCD3/CD28 activation beads (11456D; ThermoFisher Scientific) at a ratio of 25 μl dynabeads per 0.5×10^6 T-cells. Cells were activated with 25-50 μM Urolithin A (Tocris) or DMSO in T cell activation Medium (RPMI (ThermoFisher Scientific) 10% FBS (South America origin), 10 mM Hepes (Sigma), 1× Non-Essential Amino Acid, 1 mM Sodium Pyruvate, 50 μM B-Mercaptoethanol, 100 U/ml penicillin, 100 μg/ml streptomycin and 2 mM Glutamax (ThermoFisher Scientific) for the indicated durations. In selected experiments, cells were stimulated in the presence of inhibitors, namely TCF1i (ICG-001; SelleckChem; 10 μM) and PGC-1αi (SR-18292, Sigma-Aldrich; 10 μm,). For subsequent analysis, activating beads were magnetically removed prior antibody staining. For human T cells, peripheral blood mononuclear cells were purified with a Ficoll-Paque (GE healthcare) gradient. T cells were enriched with EasySep Human T Cell Isolation Kit (StemCell) and activated with dynabead Human T-Activator CD3/CD28 for T Cell Expansion and Activation Kit (11131D; ThermoFisher Scientific), similar to murine T cell stimulation.
For flow cytometric analysis of mitochondria and lysosomes 500 μl of Mitotracker Red (200 nM; ThermoFisher) or Lysotracker Red DND-99 (75 nM; ThermoFisher) were applied followed by surface staining. To study changes in mitochondrial membrane potential, Mitoprobe TMRM kit (ThermoFisher) was used according to the manufacturer's instructions. Cell proliferation was assessed by CellTrace Violet (Invitrogen, C34557) at a concentration of 5 μM according to manufacturer's instructions. For human samples, cells were stained as described above with Fixable Viability Dye-eF780, αCD95-BV421 (DX2; 562616), αCD62L-PE (DREG-56; 555544), αCCR7-AF700 (150503; 561143), αCD45RO-APC (UCHL; 559865), αCD45RA-FITC (HI100; 555488), αCD8-PE-CF594 (RPA-T8; 562282) and αCD4-BV786 (OKT4; 566806) from BD.

[1] = system: FoxP3+ T regulatory cells; settings: cited from earlier work
C. elegans = settings: cited from earlier work
[2] = system: CEA-expressing human CRC organoids; assay: CEA-CAR T cell killing of CRC organoids; format: cell-based; settings: 72 h co-culture, UA vs DMSO
Description: In human CRC organoids, CEA-expression was confirmed by flow cytometry […]CEACAM5-APC (487609; FAB41281A; R&D Systems) Before co-culture, CEA-CAR T cells were cultivated in presence or absence of UA for three days. The cytotoxicity assay was performed as described (Schnalzger et al., 2019), using 96 well plates coated with 15 μl Cultrex Basement Membrane Extract, Type 2 per well and organoids were seeded at a ratio of 1:8. Co-culture was performed for three days with 0.5×10^4 CAR T cells per well resuspended in organoid medium (as described above) without IL7/IL15. 100 μl luciferase assay reagent composed of 10% One-Glo EX Reagent (Promega) in lysis buffer (50 mM NaCl, 50 mM Tris-HCl pH 7.4, 1% Triton X-100) was added to each well and incubated at room temperature for 1 h protected from light. 100 μl of each sample was transferred to an opaque 96-well microtiter plate and measured using a SpectraMax iD3 microplate reader (Molecular Devices).

[3] = cited from earlier work
[4] = UA treated Pgam5-/- CD8+ T cells, 48 h

In the case of `O=c1oc2cc(O)ccc2c2ccc(O)cc12` [UA, Urolithin A], the lysosome formation (Pgam5^−/− CD8^+ T cells; Pgam5-/- CD8+ T cells) was “still enhanced”, the mitochondrial content (Pgam5^−/− CD8^+ T cells; Pgam5-/- CD8+ T cells) was “reduced” and the PGC-1a (Pgam5^−/− CD8^+ T cells; Pgam5-/- CD8+ T cells, 48 h, UA 50 μM) was “failed to enhance”. For the same molecule, the “UA-dependent expansion of CD44-CD62L+Sca1Hi TSCM cells” value (Pgam5^−/− CD8^+ T cells; Pgam5 loss, 48 h) was “blocked”, the TCF1 (Pgam5^−/− CD8^+ T cells; [4]) was “failed to upregulate” and the “memory marker CD95” value (Pgam5^−/− CD8^+ T cells; [4]) was “failed to upregulate”. The “FoxP3+ T regulatory cells” value [1] was “expanding”, the lifespan (C. elegans) was “prolonged lifespan” and the mitochondrial content (C. elegans) was “higher mitochondrial content”. The “killing efficacy of CEA-expressing human CRC organoids” value [2] was “comparable killing efficacy”, the muscle function ([3]; Rodents fed with a UA-high diet) was “superior muscle function” and the “muscle function in mice with Duchenne muscular dystrophy” value ([3]; UA-high diet) was “recovery of muscle function”.
